{"source": "patent US8927502B2", "about": "“Embedded chimeric peptide nucleic acids and uses thereof” (ICahn School of Medicine at Mount Sinai, priority 2010, dated 2015)", "key": {"[1]": {"test_system": "human γ-globin gene in MBC-βYAC cells", "assay": "γ-globin expression by quantitative RT-PCR in β-YAC mouse bone marrow cells", "type": "cell-based", "description": "To test this, a line of mouse bone marrow cells engineered to carry a yeast artificial chromosome that contains the complete human β-like globin locus (β-YAC) was used.\nAfter treatment, cells were harvested and mRNA was extracted for reverse transcriptase (RT)-quantitative polymerase chain reaction (qPCR) using two different sets of published primers that recognize sequences within the γ-globin gene.\nTotal RNA from β-YAC MBCs were isolated with a RNeasy micro kit (Qiagen) following the manufacturer's instructions. RNA concentrations were quantified using a Nanodrop. Reverse transcription of RNA was performed with Promega's Reverse Transcription System and expression levels were quantified using a Quantitect SYBR Green PCR kit from Qiagen in conjunction with an ABI PRISM 7900HT and SDS software [see Lohmann, F. & Bieker, J. J. supra] Q-PCR results for globin expression were normalized by 2−[(Ct γ−Ct β)−(Ct γ [no PNA]−Ct β [noPNA])][see Livak, K. J. & Schmittgen, T. D., Analysis of relative gene expression data using real-time quantitative PCR and the 2(−Delta Delta C(T)) Method. Methods 25, 402-408 (2001)] divided by the PNA incorporation efficiency (determined from the live cell image data). Each reaction was performed in triplicate."}, "[2]": {"test_system": "PNA78 target sequence/minimal SV40 promoter luciferase reporter in K562 cells", "assay": "Luciferase reporter with four repeats of PNA78 target sequence and minimal SV40 promoter in K562 cells", "type": "cell-based, human"}, "[3]": {"test_system": "γ-globin promoter luciferase reporter", "type": "cell-based, human", "experimental": "The γ-globin reporter contained a 1.5 Kb Human HS2 fragment upstream of the −299 to +37 human γ-globin promoter in Promega's (Madison, Wis.) pGL2 Basic plasmid. [See Caterina, J. J., Donze, D., Sun, C. […] Nucleic Acids Res 22, 2383-2391 (1994).]\nTransfection of K562 cells was performed using the DMRIE lipofection method (Gibco, Invitrogen, Carlsbad, Calif.). K562 cells were counted and 1×10^5 cells were resuspended in 0.1 mL OPTI-MEM in a 12-well plate (BD Falcon, Franklin Lakes, N.J.). Experiments were all done in triplicates. 1.5 ng Renilla plasmid (Promega Corporation. Madison, Wis.) and 0.5 μg reporter construct were added to each well. After 2 hours of transfection, PNAs were added to a final concentration of 10 μM. 2 hours later, 1 ml RPMI and a final concentration of 10% FBS were added to each well. This was followed by incubation at 37° C. for 36 hours.\n36 hours after PNA addition, K562 cells were collected by centrifugation at 2500 rpm. Media was discarded and cells were washed once with 1×PBS and resuspended in 250 μL 1× passive lysis buffer (PLB) (Promega). Tubes that contained cells were put on a rocker platform for 10 minutes at room temperature. Cells were then centrifuged at 13000 rpm and resuspended in 200 μL 1×PLB, loaded on a 96 well plate and further analyzed with a Turner Biosystem Microplate Luminometer. […] Mol Cell Biol 27, 8547-8560 (2007).] Luciferase values were divided by the Renilla value from the same sample after it had been divided by 1000. To minimize the differences in between loading, each sample was loaded in three different wells and the average of three was calculated."}, "[4]": {"test_system": "PNA78 target sequence/minimal SV40 promoter luciferase reporter in 293T cells", "assay": "Luciferase reporter with four repeats of PNA78 target sequence and minimal SV40 promoter in 293T cells", "type": "cell-based"}, "[5]": {"test_system": "human γ-globin promoter DNA oligonucleotide (wild type or mutated target sequence)", "settings": "for binding of PNA to its target DNA oligo (bound/input): wild type vs mutant oligo, PNA 0-10 μM, 37° C. overnight", "experimental": "FIG. 1 depicts in vitro target binding specificity of four PNAs designed to interact with the human γ-globin promoter. […] The relative location of known promoter elements within this region is also indicated. Orientation of the PNA molecule relative to the promoter sequence is shown above, with a lys at its 3′-end and a biotin molecule (circle) attached at the 5′-end. In FIG. 1(b), different concentrations of PNAs (0-10 μM) were incubated with a constant amount of radioactively labeled DNA oligonucleotide (10 nM) containing either the wild type (wt) or mutated (mut) target sequence followed by incubation with streptavidin Dynabeads and collection with a magnetic particle concentrator. Bound/input ratios were obtained after scintillation counter analysis. […] The A+G sequence ladder is shown in lane 1, along with the nucleotide sequence of the γ-globin promoter aligned on the left.\nA novel assay was developed to monitor specific binding of PNA molecules to their cognate DNA site (FIG. 1(b)). 2 ng of ^32P-labelled double-stranded DNA oligonucleotide (designed at regions of the γ-promoter centered at each of the four PNA target sites) was incubated with various molar excess (0× to 1000×) of PNA at 37° C. overnight in a final volume of 15 uL with 10 mM Tris and 1 mM of EDTA. The resultant material was incubated with equal amount of Dynabeads M280-streptavidin (DYNAL biotech) for […] at 25° C. Beads had been prepared by washing twice with BW buffer (10 mM Tris, pH7.5, 1 mM EDTA, 2.0M NaCl). The beads were pulled down with a Dynal MPC-S magnetic particle concentrator and washed twice with BW buffer. Samples were finally suspended in 50 uL BW buffer, and radioactivity was counted for 10 minutes in a scintillation counter to yield the average counts per minute (cpm) taken for each sample, which was then divided by the cpm of the input (1 uL of the radio-labeled oligo)."}, "[6]": {"test_system": "endogenous γ-globin promoter", "assay": "Chromatin association assay in K562 cells (streptavidin bead pull-down, quantitative PCR)", "type": "cell-based, human", "settings": "10 μM in K562 cells", "text": "To determine whether PNA78 can interact with its target site in vivo, a modification of the chromatin immunoprecipitation assay was developed. […] Along with the “no addition” negative control, a variant of PNA78 that contain two point mutations (MUT PNA78) was synthesized and used it as an additional negative control along with a “TAT alone” control.\nThis assay incorporates elements of chromatin [see Siatecka, M., Xue, L. & Bieker, J. J., Sumoylation of EKLF promotes transcriptional repression and is involved in inhibition of megakaryopoiesis, Mol Cell Biol 27, 8547-8560 (2007)] and biotinylated protein [see Viens, A., Mechold, U., Lehrmann, H., Harel-Bellan, A. & Ogryzko, V., Use of protein biotinylation in vivo for chromatin immunoprecipitation. Anal Biochem 325, 68-76 (2004)] immunoprecipitation protocols. PNA 78/TAT or mutant (MUT) PNA 78/TAT were added to 10^7 K562 cells to a final concentration of 10 μM. After […], a portion of the cells were analyzed and quantified for PNA incorporation efficiency by confocal analysis of live cells (as above), and the rest were harvested and cross-linked with 0.4% formaldehyde (Fisher Scientific, F79-500) for 10 minutes in room temperature then quenched by addition of glycine in the final concentration of 0.125 M for another 10 minutes. […]\nAfter 16 hours of incubation of K562 cells, any formed PNA-chromatin complex was cross-linked and cells were disrupted and chromatin was sheared by sonication. […] The DNA was purified for sequence identification by quantitative PCR. To more precisely quantitate the extent of PNA entry into the nucleus, a portion of the cells from each treatment was collected, stained with the DRAQ5 live-cell nuclear stain, attached to chamber-slides, and inspected under confocal microscopy to compare PNA and TAT nuclear entry efficiency.\nOne microliter of DNA was used in 20 μl of quantitative PCR reaction using a Quantitect SYBR Green PCR kit from Qiagen (Valenica, Calif.) and the presence of γ-globin promoter sequences was quantified with an ABI PRISM 7900HT and SDS software. […]"}, "[7]": {"test_system": "γ-globin promoter region −299 to +37", "settings": "PNA 50 uM, overnight at 37° C.", "protocol": "To further confirm the observation in the magnetic-pull down assay, permanganate (KMnO4) probing of the PNA78/DNA interaction in solution was carried out (FIG. 1(c)). […] Methods Mol Biol 208, 91-109 (2002)], 1 ng of a singly ^32P-end-labeled, gel purified RsaI/XhoI fragment derived from the p250 plasmid that contains the γ-globin promoter region −299 to +37 was incubated in a volume of 15 μL with a final concentration of 10 mM Tris and 1 mM EDTA for 30 minutes at 37° C. PNA was added at a final concentration of 50 uM for further incubation overnight at 37° C. 1 uL 20 mM KMnO4 was added to the reaction, and after 15 s 10 uL stop buffer (1.5 M sodium acetate, 1 M 2-mercaptoethanol, Ph 7.0) was added. 2.5× vol of 96% ethanol was added and the DNA collected by centrifugation at 13000 rpm for 15 minutes. The supernatant was removed and the DNA pellet dissolved in 100 uL 10% piperidine followed by incubation at 90° C. for 20 minutes. The lympholized DNA sample was resuspended in 8 μL FA buffer (80% deionized fomamide, 10 mM EDTA, 0.25% xylenecyanol FF, 0.25% bromphenol blue). DNA was denatured at 90° C. for 2 minutes, chilled on ice, and then electrophoresed on thin 10% polyacrylamide gels containing 7 M urea. The dried gel was then exposed for autoradiography."}, "[8]": {"test_system": "γ-globin protein in MBC-βYAC cells", "settings": "not detectable in untreated cells", "protocol": "K562 cells were also stained and served as a positive control for γ-globin protein detection (arrowheads).\nAt 48 hours post-PNA treatment, 100K MBC-βYAC cells were collected and spun onto frosted slides (Fisher) in a Shandon Cytospin 2 centrifuge at 500 rpm for 5 minutes. All steps were carried out at room temperature except when indicated. Cells were fixed for 4 minutes in ice-cold acetone/methanol (1:1) on ice and rinsed twice with 2% BSA/PBS. Samples were then incubated with blocking solution (10% FCS, 0.05% NP40/PBS) for 30 minutes followed by a two-hour incubation with hemoglobin γ antibody (Santa Cruz Biotechnology, sc-21756) diluted 1:100 in blocking solution. Slides were washed 3× with 2% BSA, 0.05% NP40/PBS and then incubated with goat anti-mouse secondary antibody conjugated to Alexa 568 (Invitrogen) at a 1:50 dilution for one hour in a dark chamber. Slides were then washed 3× with 2% BSA/PBS with a final rinse in PBS and mounted with DAPI-containing Vectashield. DAPI and Alexa568 images were visualized on a Zeiss spinning disc confocal microscope (PerkinElmer)."}, "[9]": {"test_system": "γ-globin protein in human peripheral blood CD34+ cells", "experimental": "(§1) K562 cells served as a positive control. FIG. 13(c) contains dot plots and histograms from toxicity analysis by flow cytometry of cultured CD34+ cells after PNA treatment.\n(§2) Purified CD34+ cells were cultured, treated at the end of day 2 with the various PNA chimeras or with no PNA, and harvested 16 hours later for analysis."}, "[10]": {"test_system": "γ-globin expression in human mobilized peripheral blood CD34+ cells", "settings": "treated at end of day 2, harvested 16 hours later", "experimental": "as §1, §2"}, "[11]": {"settings": "wild type γ-promoter, 10 μM, 36 hours"}}, "note": "Like-named read-outs stand apart in the source and are kept apart here.", "data": [{"substance": "Bio-OO-CGSDALDDFDLDML-O-TACTCTAAGACTATT-O-YGRKKRRQRRR [Bio-ATF/PNA78/TAT]", "values": [{"measurement": "ability to activate γ-globin expression", "setting": "[1]; biotin at the extreme 5′ end", "value": "precluded its ability to activate γ-globin expression"}]}, {"substance": "Bio-OO-DFDLDMLGDFDLDMLG-O-TACTCTAAGACTATT-O-YGRKKRRQRRR [VP2/PNA78/TAT]", "values": [{"measurement": "luciferase activity increase compared to non-treated cells", "setting": "[2]", "value": 2.3, "unit": "fold"}, {"measurement": "effect on activity of γ-globin luciferase reporter (superactivation)", "setting": "[3]; [11]", "value": "little effect beyond that seen with PNA78/TAT"}, {"measurement": "luciferase activity increase", "setting": "[4]", "value": "not observed at all"}]}, {"substance": "Biotin-OO-GAGTTTAGCCAGG-O-k [PNA150]", "values": [{"measurement": "binding of PNA to its target DNA oligo (bound/input)", "setting": "[5]", "value": "did not discriminate or bind well"}]}, {"substance": "Biotin-OO-GGCTATTGGTCAAGGC-k [PNA116]", "values": [{"measurement": "binding to the mutant DNA target", "setting": "[5]", "value": "bound to the mutant DNA target to an unacceptable extent"}, {"measurement": "binding of PNA to its target DNA oligo (bound/input)", "setting": "[5]", "value": "bound their target DNA oligo in proportion to their input"}]}, {"substance": "Biotin-OO-TACTATAAAACTATT-O-YGRKKRRQRRR [MUT PNA78/TAT]", "values": [{"measurement": "interaction with target sequence within the γ-globin promoter (quantitative PCR of precipitated DNA)", "setting": "[6]", "value": "not higher than the ‘no addition’ control"}]}, {"substance": "Biotin-OO-TACTCTAAGACTATT-O-PKKKRKV [PNA78/NLS]", "values": [{"measurement": "effect on activity of γ-globin luciferase reporter (superactivation)", "setting": "[3]; [11]", "value": "mild"}]}, {"substance": "Biotin-OO-TACTCTAAGACTATT-O-YGRKKRRQRRR [PNA78/TAT]", "values": [{"measurement": "effect on activity of γ-globin luciferase reporter (superactivation)", "setting": "[3]", "value": "stronger"}, {"measurement": "superactivation of γ-promoter reporter mutated at the PNA78 target site", "setting": "[3]", "value": "negated its ability to be superactivated"}, {"measurement": "interaction with target sequence within the γ-globin promoter (quantitative PCR of precipitated DNA)", "setting": "[6]", "value": "greater than the non-specific MUT PNA78 and TAT alone"}]}, {"substance": "Biotin-OO-TACTCTAAGACTATT-O-k [PNA78]", "values": [{"measurement": "discrimination between wild type and mutant oligos", "setting": "[5]", "value": "~25", "unit": "fold"}, {"measurement": "binding of PNA to its target DNA oligo (bound/input)", "setting": "[5]", "value": "bound their target DNA oligo in proportion to their input"}, {"measurement": "binding to target region within the γ-globin promoter fragment", "setting": "[7]", "value": "binds specifically to its target region"}]}, {"substance": "Biotin-OO-TGTGGAACTGCTGAA-O-k [PNA7]", "values": [{"measurement": "binding of PNA to its target DNA oligo (bound/input)", "setting": "[5]", "value": "did not discriminate or bind well"}]}, {"substance": "H2N-CGSDALDDFDLDML-Biotin-O-TACTCTAAGACTATT-O-YGRKKRRQRRR [ATF-Bio/PNA78/TAT]", "values": [{"measurement": "increase of γ-globin levels/expression", "setting": "[1]; 16 hours after PNA treatment, in comparison to cells treated with PNA78/TAT alone", "value": 7, "unit": "fold"}, {"measurement": "γ-globin protein expression in the cytoplasm", "setting": "[8]", "value": "levels approaching that seen in uninduced K562 cells"}, {"measurement": "γ-globin protein accumulation", "setting": "[9]", "value": "γ-globin protein accumulation solely in those cells"}, {"measurement": "cells positive for γ-globin protein", "setting": "[9]; visual analysis of ≧100 cells per field", "value": 22, "unit": "%"}, {"measurement": "increase of γ-globin expression compared to untreated cells", "setting": "[10]", "value": "~5", "unit": "fold"}]}, {"substance": "YGRKKRRQRRR [TAT alone, reference compound]", "values": [{"measurement": "effect on activity of γ-globin luciferase reporter (superactivation)", "setting": "[3]; [11]", "value": "no effect"}, {"measurement": "interaction with target sequence within the γ-globin promoter (quantitative PCR of precipitated DNA)", "setting": "[6]", "value": "not higher than the ‘no addition’ control"}]}]}
